Here are results for 14 compounds from ChEMBL document CHEMBL5291721, “A preclinical secondary pharmacology resource illuminates target-adverse drug reaction associations of marketed drugs” (Nat Commun, 2023).

One assay addresses T1, Adenosine receptor A3 (Homo sapiens, UniProt P0DMS8).
T1 sequence (P0DMS8 whole entry): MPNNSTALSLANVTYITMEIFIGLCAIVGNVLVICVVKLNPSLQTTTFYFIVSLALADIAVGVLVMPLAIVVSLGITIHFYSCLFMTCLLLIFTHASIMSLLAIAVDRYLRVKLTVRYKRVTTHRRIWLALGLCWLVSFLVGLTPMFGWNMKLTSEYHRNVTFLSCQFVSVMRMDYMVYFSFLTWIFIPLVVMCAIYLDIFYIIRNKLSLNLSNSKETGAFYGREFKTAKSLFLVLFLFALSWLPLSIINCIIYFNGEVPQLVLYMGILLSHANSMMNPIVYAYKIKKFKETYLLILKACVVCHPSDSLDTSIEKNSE

Assay [1] has as its target T2, Cholecystokinin receptor type A (Homo sapiens, UniProt P32238).
T2 sequence (P32238 whole entry): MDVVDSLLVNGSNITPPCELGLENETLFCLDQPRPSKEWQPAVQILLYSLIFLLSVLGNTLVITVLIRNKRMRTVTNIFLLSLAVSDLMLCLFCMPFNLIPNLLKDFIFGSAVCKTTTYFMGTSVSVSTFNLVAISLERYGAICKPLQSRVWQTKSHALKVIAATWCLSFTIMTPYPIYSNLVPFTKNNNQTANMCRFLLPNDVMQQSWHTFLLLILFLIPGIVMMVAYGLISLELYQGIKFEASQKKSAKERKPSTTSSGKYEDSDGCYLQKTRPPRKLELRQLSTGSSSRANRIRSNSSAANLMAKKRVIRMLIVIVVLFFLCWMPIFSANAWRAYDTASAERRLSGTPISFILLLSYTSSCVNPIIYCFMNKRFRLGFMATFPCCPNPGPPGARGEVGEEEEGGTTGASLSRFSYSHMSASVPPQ

For assay [2], the target named is T3, Alpha-2C adrenergic receptor (Homo sapiens, UniProt P18825).
T3 sequence (P18825 whole entry): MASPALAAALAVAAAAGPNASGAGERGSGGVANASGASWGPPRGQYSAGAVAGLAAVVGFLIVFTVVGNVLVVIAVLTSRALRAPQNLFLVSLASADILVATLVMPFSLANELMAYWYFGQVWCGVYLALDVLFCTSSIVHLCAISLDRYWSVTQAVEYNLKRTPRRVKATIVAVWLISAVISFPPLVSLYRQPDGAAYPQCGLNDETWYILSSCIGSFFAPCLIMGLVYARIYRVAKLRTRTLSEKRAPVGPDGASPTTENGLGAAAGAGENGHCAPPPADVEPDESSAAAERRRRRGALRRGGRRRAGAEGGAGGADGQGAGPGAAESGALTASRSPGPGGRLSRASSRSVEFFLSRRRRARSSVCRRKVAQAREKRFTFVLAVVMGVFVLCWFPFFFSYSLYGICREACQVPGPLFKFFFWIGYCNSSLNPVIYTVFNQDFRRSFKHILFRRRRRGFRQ
The format is functional.

Assay [3] concerns the target T4, Muscarinic acetylcholine receptor M1 (Homo sapiens, UniProt P11229).
T4 sequence (P11229 whole entry): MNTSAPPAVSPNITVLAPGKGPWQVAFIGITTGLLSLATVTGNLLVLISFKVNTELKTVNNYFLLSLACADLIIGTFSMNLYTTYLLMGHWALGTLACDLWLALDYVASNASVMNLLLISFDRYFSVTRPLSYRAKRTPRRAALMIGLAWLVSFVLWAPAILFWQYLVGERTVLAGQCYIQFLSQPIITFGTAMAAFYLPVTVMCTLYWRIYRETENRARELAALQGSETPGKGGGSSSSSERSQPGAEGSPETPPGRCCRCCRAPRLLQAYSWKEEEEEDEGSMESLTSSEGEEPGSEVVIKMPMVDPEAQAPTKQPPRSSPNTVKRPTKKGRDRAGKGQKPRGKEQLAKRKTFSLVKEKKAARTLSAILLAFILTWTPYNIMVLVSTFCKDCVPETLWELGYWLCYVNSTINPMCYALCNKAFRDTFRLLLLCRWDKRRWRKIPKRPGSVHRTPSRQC
The format is functional.

Assay [4] addresses T5, Muscarinic acetylcholine receptor M2 (Homo sapiens, UniProt P08172).
T5 sequence (P08172 whole entry): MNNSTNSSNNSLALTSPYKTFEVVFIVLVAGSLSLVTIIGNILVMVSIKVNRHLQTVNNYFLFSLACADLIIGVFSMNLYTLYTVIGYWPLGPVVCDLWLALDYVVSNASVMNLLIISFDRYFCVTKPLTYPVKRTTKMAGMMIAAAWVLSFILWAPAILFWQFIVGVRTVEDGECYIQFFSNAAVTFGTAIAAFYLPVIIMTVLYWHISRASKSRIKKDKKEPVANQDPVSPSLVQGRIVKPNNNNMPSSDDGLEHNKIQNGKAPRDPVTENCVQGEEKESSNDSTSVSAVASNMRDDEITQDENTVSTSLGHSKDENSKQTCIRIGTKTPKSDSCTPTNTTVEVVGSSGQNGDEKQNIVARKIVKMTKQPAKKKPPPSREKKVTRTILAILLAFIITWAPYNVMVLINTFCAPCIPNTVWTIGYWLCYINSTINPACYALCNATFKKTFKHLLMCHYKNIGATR
The format is functional, cell-based.

In assay [5] the target is Glutamate receptor ionotropic, NMDA 1 (Rattus norvegicus, UniProt P35439).
A further assay deals with Histamine H1 receptor (Homo sapiens, UniProt P35367).
Histamine H1 receptor, sequence (P35367 whole entry): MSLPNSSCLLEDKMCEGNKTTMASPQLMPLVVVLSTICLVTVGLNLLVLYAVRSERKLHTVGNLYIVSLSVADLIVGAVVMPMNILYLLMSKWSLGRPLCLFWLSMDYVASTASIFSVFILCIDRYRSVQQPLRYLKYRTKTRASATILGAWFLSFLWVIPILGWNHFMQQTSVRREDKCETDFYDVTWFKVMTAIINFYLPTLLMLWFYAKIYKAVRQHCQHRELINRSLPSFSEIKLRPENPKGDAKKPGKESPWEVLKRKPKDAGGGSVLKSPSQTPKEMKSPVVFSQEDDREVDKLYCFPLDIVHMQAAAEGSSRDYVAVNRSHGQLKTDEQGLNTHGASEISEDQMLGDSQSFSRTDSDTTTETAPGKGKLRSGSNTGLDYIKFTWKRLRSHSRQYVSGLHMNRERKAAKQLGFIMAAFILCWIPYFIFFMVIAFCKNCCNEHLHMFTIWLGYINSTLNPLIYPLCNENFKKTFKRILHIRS
For assay [6], the target named is 5-hydroxytryptamine receptor 2B (Homo sapiens, UniProt P41595). The format is functional, cell-based.
5-hydroxytryptamine receptor 2B, sequence (P41595 whole entry): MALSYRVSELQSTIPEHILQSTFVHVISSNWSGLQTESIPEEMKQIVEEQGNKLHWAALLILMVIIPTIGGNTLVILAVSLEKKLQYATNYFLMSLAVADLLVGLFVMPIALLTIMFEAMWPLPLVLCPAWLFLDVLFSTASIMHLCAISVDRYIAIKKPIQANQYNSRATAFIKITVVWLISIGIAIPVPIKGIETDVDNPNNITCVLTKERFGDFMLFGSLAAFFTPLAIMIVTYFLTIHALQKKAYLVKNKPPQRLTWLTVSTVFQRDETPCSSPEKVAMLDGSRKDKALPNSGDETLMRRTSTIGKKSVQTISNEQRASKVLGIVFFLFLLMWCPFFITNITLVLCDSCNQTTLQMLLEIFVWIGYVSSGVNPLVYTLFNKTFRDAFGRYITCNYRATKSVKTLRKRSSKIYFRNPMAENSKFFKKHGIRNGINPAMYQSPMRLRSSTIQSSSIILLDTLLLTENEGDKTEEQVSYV
For assay [7], the target named is T6, 5-hydroxytryptamine receptor 3A (Homo sapiens, UniProt P46098).
T6 sequence (P46098 whole entry): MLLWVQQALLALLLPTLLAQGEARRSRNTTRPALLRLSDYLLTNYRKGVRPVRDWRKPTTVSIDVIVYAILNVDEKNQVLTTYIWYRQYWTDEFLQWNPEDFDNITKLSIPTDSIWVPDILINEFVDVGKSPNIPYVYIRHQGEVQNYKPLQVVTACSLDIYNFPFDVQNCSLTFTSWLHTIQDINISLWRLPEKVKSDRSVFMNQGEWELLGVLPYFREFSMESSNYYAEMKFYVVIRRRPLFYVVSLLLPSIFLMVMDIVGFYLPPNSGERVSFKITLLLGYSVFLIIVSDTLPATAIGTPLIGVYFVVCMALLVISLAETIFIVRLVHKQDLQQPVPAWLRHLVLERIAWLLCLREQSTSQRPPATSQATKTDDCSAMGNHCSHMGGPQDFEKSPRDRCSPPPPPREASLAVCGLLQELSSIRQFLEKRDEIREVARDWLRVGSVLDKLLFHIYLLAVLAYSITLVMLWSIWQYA
The format is functional.

For a further assay, the target named is Cannabinoid receptor 1 (Homo sapiens, UniProt P21554). The format is functional, cell-based.
Cannabinoid receptor 1, sequence (P21554 whole entry): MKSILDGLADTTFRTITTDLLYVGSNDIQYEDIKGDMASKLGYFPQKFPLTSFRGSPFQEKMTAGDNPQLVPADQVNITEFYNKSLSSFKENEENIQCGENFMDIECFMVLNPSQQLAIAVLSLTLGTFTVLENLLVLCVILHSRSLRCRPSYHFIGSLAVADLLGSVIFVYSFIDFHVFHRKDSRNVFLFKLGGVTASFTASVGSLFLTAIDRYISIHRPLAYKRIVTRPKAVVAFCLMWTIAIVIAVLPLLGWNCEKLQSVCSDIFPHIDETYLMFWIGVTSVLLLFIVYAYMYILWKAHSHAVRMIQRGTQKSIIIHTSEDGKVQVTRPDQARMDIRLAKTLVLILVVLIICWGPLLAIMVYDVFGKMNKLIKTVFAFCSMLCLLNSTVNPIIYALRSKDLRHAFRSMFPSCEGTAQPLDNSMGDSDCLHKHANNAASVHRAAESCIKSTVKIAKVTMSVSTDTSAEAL

Where only a bound is given, the exact number is not on record here.
Also: assay procedure not described here.

As to `CCC(CC)(CC(=O)Nc1cccc(/C=C/c2nc(C3CCC3)cs2)c1)C(=O)O`, the results for the concentration at half-maximal activity (AC50) (at Adenosine receptor A3; in assay [1]) were 13.9 µM and over 30 µM, respectively.
As for `CCCCCNC(=N)N/N=C/c1c[nH]c2ccc(OC)cc12` [TEGASEROD], the AC50 – broadly, the concentration at which the activity in the assay is half-maximal – on Adenosine receptor A3 is 15.3 µM; in assay [2], 0.771 µM; in assay [1] it was over 30 µM; in [3], over 30 µM; in assay [4], over 10 µM; in assay [5] it was 16 µM. Further, the AC50 (on Histamine H1 receptor; in assay [6]; in assay [7]) was over 30 µM each time.
`COc1cc2nc(N3CCN(C(=O)c4ccco4)CC3)nc(N)c2cc1OC` [PRAZOSIN]: the half-maximal activity concentration (AC50) at Adenosine receptor A3 is over 30 µM; in [1], over 30 µM; in [4], over 10 µM; at Cannabinoid receptor 1, over 30 µM; in assay [5], over 10 µM; in assay [6] it was over 10 µM. The compound also registered an AC50 in [7] of over 10 µM.
On to `O=[N+]([O-])O[C@@H]1CO[C@H]2[C@@H]1OC[C@@H]2O` [ISOSORBIDE MONONITRATE], for which the AC50 was over 30 µM at Adenosine receptor A3; over 10 µM in [2]; over 30 µM in assay [1]; over 10 µM in [3]; over 10 µM in assay [4]; over 10 µM in assay [5]. The AC50 was over 10 µM at Histamine H1 receptor, over 10 µM in assay [6] and over 30 µM in assay [7].
For `CN1CCN(C2=Nc3ccccc3Sc3ccc(Cl)cc32)CC1` [CLOTHIAPINE], the AC50 is 2.1 µM in assay [2]; 1.2 µM in [3]; 6.7 µM in [4]; over 30 µM on Cannabinoid receptor 1; over 30 µM in assay [5]; 0.02 µM on Histamine H1 receptor. Further, the AC50 in [6] was over 30 µM; in assay [7] it was 9 µM.
As for `O=[N+]([O-])c1cn2c(n1)OC[C@@H](OCc1ccc(OC(F)(F)F)cc1)C2` [PRETOMANID], the AC50 was over 30 µM on Adenosine receptor A3; over 10 µM in assay [2]; over 30 µM in assay [1]; over 10 µM in assay [3]; over 10 µM in [5]; over 10 µM at Histamine H1 receptor. Moreover, the concentration at half-maximal activity (AC50) in assay [7] is over 10 µM.
For `CN(C)CCC=C1c2ccccc2C=Cc2ccccc21` [CYCLOBENZAPRINE], the AC50 was over 30 µM on Adenosine receptor A3; 3.9 µM in [2]; over 30 µM in [1]; 0.18 µM in assay [3]; over 30 µM at Cannabinoid receptor 1; over 10 µM in assay [5]. In addition, the concentration at half-maximal activity (AC50) on Histamine H1 receptor is 0.021 µM; in assay [6] it was over 10 µM; in [7] it was over 30 µM.
Consider `CCOc1ccc(Cc2cc([C@@H]3O[C@H](CO)[C@@H](O)[C@H](O)[C@H]3O)ccc2Cl)cc1` [DAPAGLIFLOZIN], for which the half-maximal activity concentration (AC50) is over 30 µM on Adenosine receptor A3; over 10 µM in [2]; over 30 µM in assay [1]; over 10 µM in assay [3]; over 10 µM in assay [5]; over 10 µM on Histamine H1 receptor. In [7], this compound gave an AC50 of over 30 µM.
For the compound `CN(C)CC/C=C1\c2ccccc2CSc2ccccc21` [DOTHIEPIN], the AC50 was over 30 µM at Adenosine receptor A3; 9.8 µM in [2]; over 30 µM in assay [1]; 1.4 µM in [4]; over 30 µM at Cannabinoid receptor 1; over 30 µM in [5]. Moreover, the concentration at half-maximal activity (AC50) on Histamine H1 receptor was 0.019 µM; in assay [6], over 30 µM; in assay [7] it was over 30 µM.
`Cc1cc(C)c(NC(=O)CN(CC(=O)O)CC(=O)O)c(C)c1Br` [MEBROFENIN]: the AC50 (in assay [2]; in assay [3]; in assay [4]; at Cannabinoid receptor 1; in assay [5]; on Histamine H1 receptor) was over 30 µM throughout. Also, the half-maximal activity concentration (AC50) in [6] and in [7] was over 30 µM each time.
For the compound `CCCC1O[C@@H]2C[C@H]3[C@@H]4CCC5=CC(=O)C=C[C@]5(C)[C@H]4[C@@H](O)C[C@]3(C)[C@]2(C(=O)CO)O1` (stereo partly specified) [BUDESONIDE], the AC50 (on Adenosine receptor A3; in assay [2]; in assay [1]; in assay [4]; in [5]; in assay [6]) was over 10 µM each time. Also, the half-maximal activity concentration (AC50) in [7] was over 30 µM.
Consider `COC1=C(OC)C(=O)C(C/C=C(\C)CC/C=C(\C)CC/C=C(\C)CC/C=C(\C)CC/C=C(\C)CC/C=C(\C)CC/C=C(\C)CC/C=C(\C)CC/C=C(\C)CCC=C(C)C)=C(C)C1=O` [UBIDECARENONE], for which the concentration at half-maximal activity (AC50) (in assay [2]; in assay [3]; in [4]; on Cannabinoid receptor 1; in assay [5]; on Histamine H1 receptor) was over 30 µM each time. In addition, the AC50 in assay [6] and in [7] was over 30 µM throughout.
For the compound `Cc1oc(=O)oc1CN1CCN(c2cc3c(cc2F)c(=O)c(C(=O)O)c2n3C(C)S2)CC1` (stereo unspecified) [PRULIFLOXACIN], the AC50 (in assay [2]; in assay [3]; in [4]; on Cannabinoid receptor 1; in assay [5]; at Histamine H1 receptor) was over 30 µM in each case. Moreover, the AC50 in assay [6] and in [7] was over 30 µM in each case.
Take `CC[C@H]1CN2CCc3cc(OC)c(OC)cc3[C@@H]2C[C@@H]1C[C@H]1NCCc2cc(OC)c(OC)cc21` [EMETINE]: the concentration at half-maximal activity (AC50) on Adenosine receptor A3 was over 30 µM; in assay [2], 0.23 µM; in [1] it was over 30 µM; in assay [4], over 30 µM; at Cannabinoid receptor 1 it was over 30 µM; in [5] it was over 30 µM. The AC50 in assay [6] and in assay [7] was over 30 µM each time.
